Assay results reported in ChEMBL document CHEMBL3507680, “University of Dundee, Gates Library screen for HepG2 cell viability”.

Test: Human HepG2 cell viability assay in 384 well format
Assay type: toxicity, cell-based
Parameters: dose 125 nL, time 70.5 hour; concentration not given beside the values
Details: HepG2 cells, read-out: Inhibition

Structure (SMILES)	cytotoxicity at 70.5 h
C=C(C)Cn1c(=O)nc(N)c2c(-c3ccc(OC)cc3)csc21	-9.64%
CC(C1CC1)N(C)Cc1nnc(-c2ccco2)o1 (centres undefined)	1.08%
Cc1ccnc(NCc2cn3nc(C)sc3n2)n1	1.46%
CCCc1cc(=O)n(CC(=O)NC(C)C)c(-n2nc(C)cc2C)n1	-4.73%
Cc1ncsc1CCC(=O)N1CCN(CCn2cncn2)CC1	-10.7%
Cc1cc(C#N)ccc1S(=O)(=O)NCc1cnc(N(C)C)n1C	-5.78%
O=C(O)C1(Cc2ccccc2Cl)CCN(c2ncnc3[nH]ccc23)CC1	10.8%
CCCc1cc(C(=O)NC2CCCCNC2=O)[nH]n1 (centres undefined)	-5.95%
CC(C(=O)N1CCc2ccccc21)N1CCc2cncnc2C1 (centres undefined)	-3.31%
Cc1[nH]ncc1CCCNC(=O)Nc1ccc(S(C)(=O)=O)nc1	10.3%
CN(Cc1ccccc1)C(=O)CCNc1ncccc1C#N	-4.83%
CC(C)(O)CN1CCN(C(=O)c2cnn(-c3ccccc3F)c2)CC1	-4.5%
COc1ccc(-c2cc(CC3(NCc4ccc(C)o4)COC3)no2)cc1	6.13%
CC[C@H](N)Cn1nc(-c2cccs2)oc1=O	-26.2%
N[C@H]1CN(C(=O)CCc2ccccn2)C[C@@H]1c1ccccc1	4.91%
CC(NC(=O)c1coc(COc2cccc(F)c2)n1)c1nnc(N)s1 (centres undefined)	-10.7%
COC(=O)c1ccc(N(C(=O)c2cscn2)C(C)C)c(C)c1	-4.28%
CN1CCN(CCOc2ccc(NC(=O)c3ccc[nH]3)cc2)CC1	-2.18%
CCN1CCC(CNc2nccc(C)n2)(N(C)C)CC1	-3.2%
Cc1ccccc1C(=O)NC(C)c1cnn(C)c1 (centres undefined)	27.8%
CS(=O)(=O)NC(c1ccccc1)c1ccc2c(c1)CCCO2 (centres undefined)	-6.34%
CCn1cc(C(=O)Nc2cc(C)ccc2C)cn1	17%
Cc1ccoc1C(=O)N1CC[C@H]2OCC[C@@]2(COCc2ccncc2)C1	-5.41%

Structure (SMILES)	cytotoxicity at 70.5 h
CC(=O)N(Cc1noc(C2CC2)n1)C1CCN(Cc2cccnc2)C1 (centres undefined)	-9.51%
Cn1cc(CCCNC(=O)NC2CCN(CC(F)(F)F)C2=O)cn1 (centres undefined)	-3.21%
CC(C)CNC(=O)CSc1nnc(OC(C)C)s1	-10.7%
Cc1nn(C)c(C)c1CCC(=O)Nc1cn(C)c(=O)n(C)c1=O	-1.93%
Cn1c(C2CC2)nc2c1CCN(CC(=O)NC1CCCCNC1=O)C2 (centres undefined)	-7.85%
CN1CCC(Cc2cnc(CNC(=O)Cc3cccc(F)c3)cn2)CC1	-2.96%
CCC1CN(c2nnc(C)c(C)c2C#N)CCO1 (centres undefined)	8.71%
Cc1nn(C)c(C)c1OCC(=O)N1CCCC1	-6%
O=C1CCC(=O)N1CCn1nnc(-c2cccc(Cl)c2)n1	1.35%
Cc1noc(C)c1CN1CCOCC12CCN(c1ncccn1)CC2	-8.87%
COc1ccnc(N2CCN(C(=O)c3csnn3)CC2)n1	-3.32%
Cn1cnc(S(=O)(=O)N2C[C@H](OCC3CC3)[C@H]3OCCC[C@H]32)c1	16.2%
O=C(c1cnn2c1OCCC2)N1CCN(C(=O)C2CCCO2)CC1 (centres undefined)	-5.75%
CC(C)NC(=O)CN(C)C(=O)c1csc(Cc2ccccc2F)n1	-6.85%
COC(=O)c1ccc(N(C(=O)c2cccnc2C)C(C)C)c(C)c1	-7.81%
Cc1cnn(CC2CCCN2CCc2nc3ccccc3c(=O)[nH]2)c1 (centres undefined)	0.164%
CN(Cc1ccc(C#N)cc1)Cn1nccc1-c1cccnc1	-4%
CCc1noc(C2CC(=O)N(CCN(C)C)C2)n1 (centres undefined)	-3.23%
CCS(=O)(=O)Nc1ccn(Cc2c(F)cccc2Cl)n1	-9.46%
CCCSc1ncccc1C(=O)NCc1ccc(N(C)C)cc1	18.5%
c1cnc2[nH]nc(C3CCN(Cc4ccsc4)CC3)c2c1	-4.44%
Cc1ccsc1C(=O)N1CC2CC1(C(=O)NCC1CC1)C2	-16.8%
O=C1CC[C@H]2[C@H](CCN2c2ncccn2)N1c1ccccc1	-10.3%

Structure (SMILES)	cytotoxicity at 70.5 h
CC(NC(=O)c1cccc(CN2CCN(C)CC2)c1)c1ccccn1 (centres undefined)	0.178%
NC(=O)[C@@H]1Cc2ccccc2CN1S(=O)(=O)N1CCCCC1	-1.22%
Cc1ccnc(CC(C)N(C)c2cc(CN)nc(C)n2)c1 (centres undefined)	-5.59%
O=C(NCC(O)c1ccc(F)c(F)c1)c1cccnc1OCC(F)(F)F (centres undefined)	-8.69%
c1ccc(CN2CCC3(CC2)CN(c2ccccn2)CCO3)nc1	-5.77%
CCS(=O)(=O)N1CCC2(CCN(C(=O)c3cccs3)CC2)CC1	-4.52%
CC1=N[C@@]2(CC[C@@H]3CN(C(=O)NCC(C)C)C[C@@H]32)C(=O)N1C	-0.53%
Cc1cc(C(C)NC(=O)Cn2nc(C)c3ccccc3c2=O)c(C)o1 (centres undefined)	18.3%
OCC1(Cc2ccccc2F)CCCN(c2ccc3ccccc3n2)C1 (centres undefined)	-1.23%
CCCN1CC2(CCN(C)CC2)CC1C(=O)NCCn1ccc(C)n1 (centres undefined)	-1.37%
C[C@@H]1CN2C[C@H](O)CC2CN1Cc1ccc2nccnc2c1 (some centres undefined)	35.6%
CN1CCC(c2nc3ccc(-c4ccccc4)cn3n2)CC1	-3.45%
CCc1n[nH]c(C2CN(C(=O)c3nc(C)n4ccccc34)CCO2)n1 (centres undefined)	-20.1%
Cc1ccsc1[C@@H]1CCN(C(=O)CCCn2cncn2)C[C@H]1O	-7.81%
COCc1cn(C[C@H]2CC3CCN2C[C@@H]3C(=O)Nc2ccccc2)nn1 (some centres undefined)	-6.64%
CC(C)CCNC(=O)c1ccc(-c2ccco2)[nH]c1=O	-1.63%
CCOC1CC2(CCN(C(=O)COC)CC2)c2cc(C)ccc21 (centres undefined)	-9.53%
Cc1ccc(CN2CCC3(CCCN3S(C)(=O)=O)CC2)s1	-11.8%
CCC1CCCCN1Cc1ncc(C(C)(C)C)o1 (centres undefined)	-7.2%
CN(Cc1cc(-c2ccncc2)no1)Cc1nccn1C	10.3%
CSc1ncnc(NCc2ccccc2F)c1C#N	23.1%
COc1ncc(-c2nccn2C(C)CCn2cccn2)cn1 (centres undefined)	2.54%
Cc1nc(CC(=O)N(C)C2CCCN(CCc3ccccc3)C2)cs1 (centres undefined)	-4.36%

Structure (SMILES)	cytotoxicity at 70.5 h
CNC(=O)c1ccc(NC(=O)NC(C)c2cc(C)oc2C)c(C)c1 (centres undefined)	-5.7%
CCCN(C(=O)c1ocnc1C)C1CCCN(Cc2ccccc2)C1 (centres undefined)	-5.56%
CS(=O)(=O)c1ccc(CNC[C@H]2COCc3nc4ccccc4n32)cc1	5.94%
CC[C@@H](C)[C@@H](N)C(=O)Nc1cccc(-c2cnc(N)nc2)c1	-6%
Cc1noc(C)c1C(=O)NCCSCc1cccs1	0.282%
c1cncc(COC[C@@H]2CCC[C@@]23CNCCO3)c1	8.38%
CC(C)NC(=O)N1CCC2(CC1)NC(=O)[C@H]1CN(C(=O)N(C)C)C[C@H]12	-3.94%
CC(C)CCNc1c(C#N)c2c(c3nncn13)CN(C)CC2	-3.96%
O=C(CN1CCCC1Cn1cncn1)Nc1nncs1 (centres undefined)	14.3%
CC(=O)Nc1cccc(OCCNC(=O)N(C)Cc2ccccc2)c1	3.43%
O=C(c1cnc(O)cc1O)N1CCCC(CCc2ccccc2F)C1 (centres undefined)	-11.4%
CN(C)C[C@]12COC[C@H]1CN(C(=O)CCc1ccccc1)C2	-11.8%
CC(O)CN1CCC(CNCc2cccc(OC(F)(F)F)c2)CC1 (centres undefined)	5.77%
CN(C)C(=O)[C@H]1CO[C@H]2CCN(c3ncc(F)cn3)C[C@H]2C1	-8.69%
CC(C)c1nc(C2CCCN2c2cnc3cc(F)c(F)cc3n2)no1 (centres undefined)	-5.58%
CCc1cc(NCCc2cc(F)cc(F)c2)n2nccc2n1	-2.57%
NC[C@H]1[C@H]2CN(Cc3ccccc3)C[C@@H]12	0.818%
O=C(CN1CCOC(Cn2cccn2)C1)NCc1ccco1 (centres undefined)	-2.4%
COCC(=O)N[C@H](C)c1onc(-c2ccc(OC)cc2)c1C(=O)O	10.8%
CCc1nc(CN2CCCN(C(=O)c3cn[nH]c3CC)CC2)cs1	12.4%
CC(=O)N1CCc2nc3sc(C(N)=O)c(N)c3c(C(F)(F)F)c2C1	6.92%
Cn1cc(N2CC3(CCN(Cc4ccsc4)CC3)OCC2=O)cn1	13.1%
C[C@@H]1CN(Cc2ccccn2)C[C@]12CCN(Cc1cccnc1)C2=O	-13.1%

Structure (SMILES)	cytotoxicity at 70.5 h
Cc1cnn(CC2CCCN2Cc2nnc(C(C)C)o2)c1 (centres undefined)	23%
Cn1c(CN2CCOC(c3nc(C(C)(C)C)n[nH]3)C2)nnc1C1CC1 (centres undefined)	26.5%
Cc1ccc(C(C)(O)CNC(=O)c2scnc2C)o1 (centres undefined)	-3.68%
CCOc1ccccc1CNC(=O)NCC(c1cnn(C)c1)N(C)C (centres undefined)	-9.13%
COc1ccc(C(C)=O)cc1CN1CCn2cccc2C1C (centres undefined)	-6.89%
CC(C)Nc1cc(N2CCC(n3cc(C4CCCC4)nn3)CC2)ncn1	-8.81%
CCc1ccc(OCC(O)CN2CCC(O)CC2)cc1 (centres undefined)	24.8%
Cc1ccc(CNC(=O)CCSCc2csc(C)n2)cn1	-11.2%
COCCN(Cc1ccc(F)cc1Cl)C(=O)c1c(C)noc1C	2.4%
CNc1cc(N2CCCC2CNCc2c[nH]nc2C(C)(C)C)ncn1 (centres undefined)	0.0673%
O=C(C1CCC1)N1CCCC(c2cccc(-n3ccnc3)n2)C1 (centres undefined)	-6.13%
COc1ccc(OCc2nc(C(=O)N3CCC(NC(C)=O)C3)co2)cc1 (centres undefined)	-1.19%
O=c1ncn(-c2ccc(F)cc2)c2ncccc12	-6.86%
CC(NC(=O)Nc1ccccc1CN1CCOCC1)c1nccs1 (centres undefined)	-2.17%
CCc1ccc(C(N)c2cccc(S(C)(=O)=O)c2)cc1 (centres undefined)	-4.78%
O=C(NCCCn1cncn1)NCC(c1ccccc1)N1CCCC1 (centres undefined)	0.00173%
CC(CC(=O)Nc1ncn(CC(=O)N2CCCCCC2)n1)C1CC1 (centres undefined)	0.138%
Cc1cc2n(n1)CC(CNCc1ccc(OCC3CC3)nc1)CN2 (centres undefined)	7.09%
Cc1cnc(-c2nc(C3CCCN(Cc4cccs4)C3)no2)cn1 (centres undefined)	23.7%
CCCN1CCC[C@]2(CCC(=O)N2Cc2ccncc2)[C@H]1CC	-4.44%
O=C(C1CC1)N1CCCC(c2nc(O)cc(-c3ccncc3)n2)C1 (centres undefined)	-0.584%
CSCc1noc(C2CCC(=O)N(CCc3ccccc3)C2)n1 (centres undefined)	-13.9%
